Experiments:
[1] = system: early phase of insulin secretion; settings: dose-dependent; cited from earlier work
[2] = target: somatostatin receptor-5 (SSTR5) (Homo sapiens, UniProt P35346); settings: on the β-cell; cited from earlier work
[3] = long-term usage, acromegaly or other disorders; cited from earlier work
[4] = Fasting leptin and IGF-1 (RIA), octreotide-LAR 24 weeks; type: in vivo, human; settings: Week 24-Week 0; High Responders (n = 8)
[5] = children with obesity secondary to cranial insult and insulin hypersecretion; cited from earlier work
[6] = Safety: blood pressure, glucose (FBG, CBG, HbA1c, IGT), TSH, free T4, lipids, adverse events, octreotide-LAR 24 weeks
Experimental: Inclusion criteria were ages 18-65 years and body mass index (BMI)≧35. The screening evaluation included a complete history and physical examination, and the following studies: Comprehensive Metabolic Panel (CMP), serum glucose 2 hours after an 75 gm oral glucose load, gallbladder ultrasound, and urine pregnancy test (if female). Exclusion criteria included gallstones, hypertension, diabetes mellitus (by ADA criteria), renal or liver disease, or use of chronic medications except for thyroid or estrogen supplementation. Subjects were evaluated every four weeks for 24 weeks. […]
Chemical Analyses: Serum glucose during OGTT was measured by the glucose oxidase method (Kadish, et al., “A new and rapid method for the determination of glucose by measurement of rate of oxygen consumption,” Clin Chem, 14:116-119 (1968), which is hereby incorporated by reference in its entirety). Serum immunoreactive insulin (μU/ml) and C-peptide (ng/ml) levels from each OGTT sample were measured by standard double-antibody radioimmunoassay (RIA) (Linco Research; St Louis, Mo.). Leptin was measured by double antibody RIA, and IGF-1 by competitive binding RIA (Endocrine Sciences; Calabasas Hills, Calif.). […]

somatostatin receptor-5 (SSTR5), sequence (P35346 whole entry, species assumed): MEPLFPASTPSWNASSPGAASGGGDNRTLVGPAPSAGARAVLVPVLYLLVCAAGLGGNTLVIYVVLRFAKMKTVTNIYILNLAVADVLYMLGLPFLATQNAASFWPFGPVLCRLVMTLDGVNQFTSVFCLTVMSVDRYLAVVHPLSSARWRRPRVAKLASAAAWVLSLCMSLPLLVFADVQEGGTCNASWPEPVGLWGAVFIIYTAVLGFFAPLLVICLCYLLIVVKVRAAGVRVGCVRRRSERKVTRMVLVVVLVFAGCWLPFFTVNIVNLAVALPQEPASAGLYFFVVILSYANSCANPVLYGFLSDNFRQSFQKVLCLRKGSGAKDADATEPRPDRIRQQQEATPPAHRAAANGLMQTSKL

In the case of “D-phenylalanyl-L-cysteinyl-L-phenylalanyl-D-tryptophyl-L-lysyl-L-threonyl-N-[2-hydroxy-1(hydroxymethyl)propyl]-L-cysteinamide cyclic (2=>7)-disulfide [octreotide]”, the “Early phase of insulin secretion” value [1] is given as “inhibit”, the “Binding to somatostatin receptor-5 (SSTR5)” value [2] is given as “binds” and the “Weight and fat mass” value [3] is given as “minimal positive effect”. For the same substance, the “Δ IGF-1” value [4] was “least suppression”, the Weight [5] was “promotes weight loss” and the “HR subjects demonstrating IGT” value ([6]; at Week 0 and at Week 24) was “none”. For the same substance, the “Percent of subjects with IGT” value ([6]; end of the study (32% before treatment)) was 73%.
